Laboratory results as given in patent US20130165520A1, “Hybrid Molecule Having Mixed Retinoic Acid Receptor Agonism and Histone Deacetylase Inhibitory Properties” (priority 2010, published 2013).

Key:
[1] = system: MCF-7; experiment: Cell growth measurement; assay type: cell-based; details: 10 days of treatment
Experimental: (§1) Finally, the effects of 3 on the growth of several breast cancer cell lines [MCF-7 (ER-positive, HER2-negative, RA-sensitive); SkBr3 (ER-negative, HER2-amplified, RA-sensitive); and the normally RA-insensitive MDA-MB-231 (ER-negative, HER2-negative, RA-insensitive)] was assessed.
(§2) Cell Growth Measurement: Cells were plated at 40 k cells per well (6-well plate) in DMEM 5% FBS-T for all cell lines except for I-IMEC cells which were plated in supplemented MEBM from Clonetics. Cells were treated every 48 hours and media was refreshed every 96 hours. After 10 days of treatment cells were harvested in 0.1N NaOH and growth was quantified by analyzing protein content of lysates with a Lowry assay.

[2] = system: MDA-MB-231; experiment: Cell growth measurement; assay type: cell-based; details: 10 days of treatment
Experimental: as §1, §2

[3] = system: SkBr3; experiment: Cell growth measurement; assay type: cell-based; details: 10 days of treatment
Experimental: as §1, §2

[4] = system: normal human mammary epithelial cells (HMEC); experiment: Cell growth measurement; assay type: cell-based
[5] = system: RPMI-8226; details: RPMI-8226 (Leukemia); 48 h
[6] = system: EKVX; details: EKVX (Non-Small cell lung cancer); 48 h
[7] = system: NCI-H460; details: NCI-H460 (Non-Small cell lung cancer); 48 h
[8] = system: MDA-MB-435; details: MDA-MB-435 (Melanoma); 48 h
[9] = system: SK-MEL-28; details: SK-MEL-28 (Melanoma); 48 h
[10] = system: UACC-257; details: UACC-257 (Melanoma); 48 h
[11] = system: OVCAR-3; details: 48 h
[12] = system: SK-OV-3; details: 48 h
[13] = system: ACHN; details: ACHN (Renal); 48 h
[14] = system: DU-145; details: DU-145 (Prostate); 48 h
[15] = system: MCF7; details: MCF7 (Breast); 48 h
[16] = system: T-47D; details: T-47D (Breast); 48 h
[17] = system: MDA-MB-468; details: MDA-MB-468 (Breast); 48 h
[18] = system: CCRF-CEM; experiment: cells; details: Homo sapiens, 48 h
[19] = system: HL-60(TB); experiment: cells; details: Homo sapiens, HL-60, 48 h
[20] = system: RPMI-8226; experiment: cells; details: Homo sapiens, RPMI-8226, 48 h
[21] = system: EKVX; experiment: cells; details: Homo sapiens, 48 h
[22] = system: COLO205; experiment: cells; details: Homo sapiens, COLO 205, 48 h
[23] = system: HCC-2998; experiment: cells; details: Homo sapiens, HCC 2998, 48 h
[24] = system: KM12; experiment: cells; details: Homo sapiens, KM12, 48 h
[25] = system: SW-620; experiment: cells; details: Homo sapiens, SW-620, 48 h
[26] = system: MDA-MB-435; experiment: cells; details: Homo sapiens, MDA-MB-435, 48 h
[27] = system: UACC-257; experiment: cells; details: Homo sapiens, UACC-257, 48 h
[28] = system: UACC-62; experiment: cells; details: Homo sapiens, UACC-62, 48 h
[29] = system: OVCAR-3; experiment: cells; details: Homo sapiens, OVCAR-3, 48 h
[30] = system: OVCAR-5; experiment: cells; details: Homo sapiens, OVCAR-5, 48 h
[31] = system: SK-OV-3; experiment: cells; details: Homo sapiens, SK-OV-3, 48 h
[32] = system: SN12C; experiment: cells; details: Homo sapiens, 48 h
[33] = system: HS578T; experiment: cells; details: Homo sapiens, Hs-578T, 48 h
[34] = system: acetylated histone H4 and p53 in MDA-MB-231 cells; experiment: Western blotting of acetylated histone H4 and p53; details: 10 μM, 18-24 h time course
Experimental: The potential of 3 to act as an HDACi and cause deacetylation of a synthetic substrate or hyperacetylation of HDACs target proteins was subsequently assessed. […] Intracellular HDACi activity was assessed by measuring levels of acetylated histone H4 and tumor suppressor protein p53 in MDA-MB-231 cells by Western blotting.
Western Blotting: MDA-MB-231 cells were plated in DMEM 5% FBS-T at 600 k cells per well in 6-well plates. […] Laemmli buffer at various time points. Protein concentration of the extracts was analyzed by BioRad DC protein assay. 20 μg of proteins per condition were loaded on an SDS-PA gel and transferred to a nitrocellulose membrane for blotting. Blotting was done using ABCAM primary antibodies EP356 (anti-p53) T3526 (anti-Tubulin) and AB1761 (anti-acH4).

CC1(C)CCC(C)(C)c2cc(-c3ccc4cc(C(=O)NO)ccc4c3)ccc21 [hybrid 3]
effect on cell growth [1]: active | IC50 ([1]; Homo sapiens, MCF7, 240 h): 150 nM | effect on cell growth [2]: active | IC50 ([2]; Homo sapiens, 240 h): 300 nM | effect on cell growth [3]: active | IC50 ([3]; Homo sapiens, SK-BR-3, 240 h): 90 nM | effect on growth of normal cells [4]: only minimal effects | TGI [5]: 4390 nM | TGI [6]: 3430 nM | TGI [7]: 1070 nM | TGI [8]: 2540 nM | TGI [9]: 5500 nM | TGI [10]: 7340 nM | TGI [11]: 1880 nM | TGI [12]: 11700 nM | TGI [13]: 1490 nM | TGI [14]: 1900 nM | TGI [15]: 1680 nM | TGI [16]: 4030 nM | TGI [17]: 2750 nM | GI50 [18]: 306 nM | CC50 ([18]; read-out: LC50): > 100000 nM | GI50 [19]: 353 nM | CC50 ([19]; read-out: LC50): 7660 nM | GI50 [20]: 689 nM | CC50 ([20]; read-out: LC50): > 100000 nM | GI50 [21]: 686 nM | CC50 ([21]; read-out: LC50): 18400 nM | GI50 [22]: 797 nM | CC50 ([22]; read-out: LC50): 6020 nM | GI50 [23]: 1090 nM | CC50 ([23]; read-out: LC50): 5750 nM | GI50 [24]: 616 nM | CC50 ([24]; read-out: LC50): 4610 nM | GI50 [25]: 626 nM | CC50 ([25]; read-out: LC50): 4850 nM | GI50 [26]: 879 nM | CC50 ([26]; read-out: LC50): 6800 nM | GI50 [27]: 1980 nM | CC50 ([27]; read-out: LC50): 29700 nM | GI50 [28]: 512 nM | CC50 ([28]; read-out: LC50): 5170 nM | GI50 [29]: 603 nM | CC50 ([29]; read-out: LC50): 4480 nM | GI50 [30]: 4120 nM | CC50 ([30]; read-out: LC50): 46100 nM | GI50 [31]: 1540 nM | CC50 ([31]; read-out: LC50): 34800 nM | GI50 [32]: 1050 nM | CC50 ([32]; read-out: LC50): 5340 nM | GI50 [33]: 3020 nM | CC50 ([33]; read-out: LC50): 64800 nM | hyperacetylation of histone H4 and p53 [34]: clear hyperacetylation
